Structures can show the parent of a compound that is named as a salt. Where two headings read alike, the source gives them in different places.
Assays:
pH (Table 1) = assay type: physicochemical
[1] = Solubility (Sol., Table 1); assay type: physicochemical
[2] = test system: Aspergillus niger (CMCC 98003); test: Minimum inhibitory concentration (MIC) assay, Example 33; assay type: cell-based; conditions: for MIC: Aspergillus niger; for MIC Aspergillus niger: n = 2
Protocol: (§1) Thirty compounds were tested for antimicrobial activity using standard procedures and standard strains for both the minimum inhibitory concentration (MIC) assay and a time kill study. Both the MIC assay and the time kill study were performed according to Clinical and Laboratory Standards Institute (CLSI) guidelines. Three bacteria strains, Escherichia coli (ATCC 25922), Pseudomonas aeruginosa (ATCC 27853), Staphulococcus aureus (ATCC 29213), and two fungus strains, Candida albicans (ATCC 90029) and Aspergillus niger (CMCC 98003), were used in the experiments.
(§2) Preparation of cultures. Before the experiment, two days for the bacteria strains and five days for fungus strains, an aliquot was removed from the cultures frozen at −80° C. Medium was added to the surface of an appropriate agar plate and streaked with the aliquot. The plate was incubated for 20 to 24 hrs at 35±2° C. for bacteria or for 5 days at 26-30° C. in incubator for fungus. From the resulting growth on each plate, one isolated colony of similar morphology was selected and re-streaked onto a fresh agar plate using a sterile disposable loop. The plate was incubated 20 to 24 hrs at 35±2° C. or for 5 days at 26-30° C. in an incubator.
(§3) Preparation of Assay Plates with Medium and Drugs. On the day of the assay, CAMHB medium or RPMI 1640 medium was removed from 4′C storage and allowed to reach room temperature. Ninety microliters (μL) of room temperature CAMHB or RPMI 1640 (supplemented with the appropriate concentration of DMSO, if required) were added to rows B-G of each 96-well microtiter plate. Using a pipette, duplicate 180 μL aliquots of each drug stock solution were added to column 1 (e.g. A1 and B1 or C1 and D1 or E1 and F1 or G1 and H1). Using a multichannel pipette or the Provision 2000 liquid handler, serial 2-fold dilutions (90 μL) were performed in each row across the plate to row G. Eighty μL of compounds dilutions were transferred to a 96-deep well plate. Medium, 1,520 μL of CAMHB or RPMI 1640, was added to each well. The contents of the wells were mixed thoroughly. A 50 μL aliquot of each of the resulting mixtures was transferred to a 96-well assay plate.
(§4) For Aspergillus niger, sporulating colonies were covered with RPMI 1640, and a suspension was prepared by gently probing the colonies with the tip of a transfer pipette. The suspension was transferred to a sterile tube and mixed with a vortex mixer for 15 seconds. The densities at 530 nm were adjusted to 0.09-0.13 for each sample. The resulting suspension was diluted 1:50 with the medium to obtain two times test inoculums. Fifty μL/well of this inoculum suspension was added to wells of drug-containing plates (1:2 dilution). Plates were incubated at 35° C. for the appropriate times. The MIC was read and recorded according to CLSI guidelines.
(§5) The MIC values for thirty compounds against Escherichia coli, Pseudomonas aeruginosa, Staphulococcus aureus, Candida albicans, and Aspergillus niger were recorded and are presented in Table 3 and Table 4.

[3] = test system: Escherichia coli (ATCC 25922); test: as above; assay type: cell-based; conditions: Escherichia coli
Protocol: as §1, §2, §3
(§6) For bacteria, a sterile inoculating loop was used to transfer growth from an agar plate culture into about 5 mL of test medium. Using a turbidity meter, this inoculum was adjusted so that its density (600 nm) was equivalent to a 0.5 McFarland barium sulfate standard (0.08-0.13). The resulting suspension was diluted 1:100 into medium to obtain two times test inoculums.
as §4, §5

[4] = test system: Pseudomonas aeruginosa (ATCC 27853); test: as above; assay type: cell-based; conditions: Pseudomonas aeruginosa
Protocol: as §1, §2, §3, §6, §4, §5

[5] = test system: Escherichia coli (ATCC 25922); test: Time kill study, Example 33 (0 to 5 min); assay type: cell-based; conditions: 1×MIC
Protocol: as §1
(§7) The viable counts in Log10 CFU/mL at each time point were recorded.
(§8) Time kill studies. Strain suspensions were prepared as described above for the MIC test, and strain suspensions and compound solutions were mixed in the same volume. Samples were removed at specified times including 0 min, 30 sec, 1 min and 5 mins, were diluted in the test medium and streaked on agar. Colonies were counted after 24 to 48 hrs of incubation. […]

[6] = test system: Staphylococcus aureus (ATCC 29213); test: Time kill study, Example 33 (0 to 5 min); assay type: cell-based; conditions: 1×MIC
Protocol: as §1, §7, §8

[7] = test system: Pseudomonas aeruginosa (ATCC 27853); test: Time kill study, Example 33 (0 to 5 min); assay type: cell-based; conditions: 1×MIC
Protocol: as §1, §7, §8

[8] = test system: Staphulococcus aureus (ATCC 29213); test: Minimum inhibitory concentration (MIC) assay, Example 33; assay type: cell-based, Staphylococcus aureus; conditions: Staphylococcus aureus
Protocol: as §1, §2, §3, §6, §4, §5

[9] = test system: Candida albicans (ATCC 90029); test: as above; assay type: cell-based; conditions: Candida albicans
Protocol: as §1, §2, §3
For Candida albicans, a sterile inoculating loop was used to transfer growth from an agar plate culture into a tube with RPMI1640 medium. This inoculum was adjusted so that its density at 530 nm was in the ranges from 0.08 to 0.13. The resulting suspension was diluted 1:50 and further diluted 1:20 with the medium to obtain two times test inoculums.
as §4, §5

[10] = CMCC98003, read-out: MIC Aspergillus niger
[11] = ATCC25922, Table 19 summary of Example 33 and Example 35
[12] = ATCC25922, read-out: MIC E. coli, n = 1
[13] = ATCC25922, read-out: MIC E. coli, n = 2
[14] = ATCC27853, read-out: MIC P. aeruginosa, n = 1
[15] = ATCC27853, read-out: MIC P. aeruginosa, n = 2
[16] = ATCC29213, read-out: MIC S. aureus, n = 1
[17] = ATCC29213, read-out: MIC S. aureus, n = 2
[18] = ATCC90029, read-out: MIC Candida albicans, n = 1
[19] = ATCC90029, read-out: MIC Candida albicans, n = 2

Row | SMILES | pH (pH (Table 1)) | Sol. [1] [%] | MIC ([2]; CMCC98003) [mg/mL] | MIC [2, 10] [mg/mL] | MIC Aspergillus niger [2] [mg/mL] | MIC [3, 11] [µg/mL] | MIC [3, 12] [µg/mL] | MIC [3, 13] [µg/mL] | MIC ([4]; ATCC27853, Table 19 summary) [µg/mL] | MIC [4, 14] [µg/mL] | MIC [4, 15] [µg/mL] | Viable counts, Escherichia coli time kill study ([5]; 0.5 min) [Log10 CFU/mL] | Viable counts, Escherichia coli time kill study ([5]; 1 min) [Log10 CFU/mL] | Viable counts, Escherichia coli time kill study ([5]; 5 min) [Log10 CFU/mL] | Viable counts, Escherichia coli time kill study ([5]; time 0) [Log10 CFU/mL] | Viable counts, Staphylococcus aureus time kill study ([6]; 0.5 min) [Log10 CFU/mL] | Viable counts, Staphylococcus aureus time kill study ([6]; 1 min) [Log10 CFU/mL] | Viable counts, Staphylococcus aureus time kill study ([6]; 5 min) [Log10 CFU/mL] | Viable counts, Staphylococcus aureus time kill study ([6]; time 0) [Log10 CFU/mL] | Viable counts, Pseudomonas aeruginosa time kill study ([7]; 0.5 min) [Log10 CFU/mL] | also measured
1 | CCCCCCCCCCCCOC(=O)C(C(C)O)N(C)C (stereo not drawn) [Nex-51, Dodecyl 2-(dimethylamino)-3-hydroxybutanoate hydrochloride] | 0.56 | 98 | – | – | – | – | – | – | – | – | – | – | – | – | – | – | – | – | – | – | –
2 | CCCCCCCCCCCCOC(=O)C(C(C)C)N(C)C (stereo not drawn) [Nex-53, Dodecyl 2-(dimethylamino)-3-methylbutanoate hydrochloride] | 1.69 | 44 | > 12.5 | > 12.5 | >12.5 | 6250 | 6250 | 6250 | 6250 | 6250 | 6250 | 5.72 | 5.71 | <3.52 | 5.64 | 6.2 | 6.24 | 6.21 | 6.35 | 5.54 | Viable counts, Pseudomonas aeruginosa time kill study ([7]; 1 min): 5.47 Log10 CFU/mL; Viable counts, Pseudomonas aeruginosa time kill study ([7]; 5 min): 5.49 Log10 CFU/mL; Viable counts, Pseudomonas aeruginosa time kill study ([7]; time 0): 5.54 Log10 CFU/mL; MIC ([8]; ATCC29213, Table 19 summary): 6250 µg/mL; MIC [8, 16]: 6250 µg/mL; MIC [8, 17]: 6250 µg/mL; MIC ([9]; ATCC90029, Table 19 summary): > 12.5 mg/mL; MIC [9, 18]: > 12.5 mg/mL; MIC [9, 19]: > 12.5 mg/mL
3 | CCCCCCCCCCCCOC(=O)C(CC(C)C)N(C)C (stereo not drawn) [Nex-55, Dodecyl 2-(dimethylamino)-4-methylpentanoate hydrochloride] | 1.84 | 50 | > 12.5 | > 12.5 | >12.5 | 6250 | 6250 | 6250 | 6250 | 6250 | 6250 | 5.71 | 5.51 | 4.6 | 5.68 | 6.22 | 6.21 | 6.18 | 6.23 | 5.61 | Viable counts, Pseudomonas aeruginosa time kill study ([7]; 1 min): 5.58 Log10 CFU/mL; Viable counts, Pseudomonas aeruginosa time kill study ([7]; 5 min): 5.45 Log10 CFU/mL; Viable counts, Pseudomonas aeruginosa time kill study ([7]; time 0): 5.37 Log10 CFU/mL; MIC ([8]; ATCC29213, Table 19 summary): 6250 µg/mL; MIC [8, 16]: 6250 µg/mL; MIC [8, 17]: 6250 µg/mL; MIC ([9]; ATCC90029, Table 19 summary): > 12.5 mg/mL; MIC [9, 18]: > 12.5 mg/mL; MIC [9, 19]: > 12.5 mg/mL
